Source: patent US20230293526A1, “METHOD FOR TREATING CANCER WITH A REVERSE TRANSCRIPTASE INHIBITOR” (PrimeFour Therapeutics, Inc., priority 2020, published 2023)

Legend:
human LINE-1 = test: Human LINE-1 (L1) retrotransposition dual-luciferase reporter assay in HeLa cells; assay type: cell-based; details: Homo sapiens, HeLa, 72 h, read-out: Human LINE-1 IC50 (Human L1 activity inhibition)
Method: Representative compounds were tested for inhibition of retrotransposition activity of human LINE-1 (L1) retrotransposition reporter assay in HeLa cells according to the following procedure.
Human Cervical Adenocarcinoma Cells (HeLa) were cultured in Dulbecco's Modified Eagle's Medium (DMEM) containing 4500 mg/L glucose, L-glutamine, sodium pyruvate and sodium bicarbonate, supplemented with 10% of heat inactivated fetal bovine serum (FBS). Cells were grown at 37° C. in an atmosphere of 5% CO2. The dual luciferase-encoding plasmid pYX017 was provided by Prof Wenfeng An (Xie, et al., 2011, Nucleic Acids Res).
The reporter assay was performed in 96-well white, optical bottom plates (Thermo Fisher, 165306). 24 hours prior to transfection, HeLa cells were seeded in a density of 2,500 cells per well, in 50 μL of DMEM, 10% FBS media volume. Cells were incubated at 37° C. in an atmosphere of 5% CO2. Seeding was optimized to achieve approximately 30% cell confluency on the day of transfection. A transfection mix was prepared by combining transfection reagent FuGENE® HD (Promega, E2311) and plasmid DNA (100 ng per well) in a 3:1 ratio, in OpiMEM media (Thermo Fisher, 31985062). Next, 5 μL of the transfection mix was combined with 20 μL of DMEM, 10% FBS media, and 25 μL of this mix was added into each well of an assay plate. In each assay plate one column remained untransfected to serve as a blank luminescence signal.
Serial dilution of test compounds was performed in DMSO and transferred to medium. Next, 25 μL of media-diluted compounds series were transferred to an assay plate containing cells and transfection media. The final concentration of DMSO in treated wells was 0.2%. Serial dilutions of compounds were added to an assay plate immediately after transfection. Compounds were tested in triplicates. The assay plate was then incubated with transfection reagent and compounds at 37° C. in an atmosphere of 5% CO2 for 72 hours.
Luciferase reporter activity was quantified with the Dual-Luciferase® Reporter Assay System (Promega) following the manufacturer's manual, with a passive lysis buffer volume increased to 30 μL and lysis incubation time increased to 20 min at room temperature with gentle shaking, to ensure complete cell lysis. Luminescence was measured using a SpectraMax i3×Multi-Mode Microplate Reader, with integration times of 100 ms and 10 ms applied to measure FLuc and RLuc signals, respectively. Relative LNE-1 activity was calculated as Firefly signal/Renilla signal*10,000. In order to determine IC50 values for each compound, dose response data were fit to a logistic using non-linear regression.

cancer cell lines = test: Cancer cell proliferation activity of representative nucleosides, CellTiterGlo 72 h (Example 7, Tables 8 and 9); assay type: cell-based; details: 72 h
How it was run: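 Cancer cell lines seeded and incubated at 37° C overnight, then exposed to nucleosides (final DMSO 0.1%) for 72 h at 37° C with 5% or 10% CO2. Viability read by CellTiterGlo luminescence and normalized to 0.1% DMSO (100%) and 10 μM staurosporine (0%) controls.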

IC50 (human LINE-1): 0.833 µM | IC50 (cancer cell lines; 72 h, 5637, bladder): 0.37 µM | IC50 (cancer cell lines; CLS439, bladder): > 50 µM | IC50 (cancer cell lines; HS729, muscle): > 50 µM | IC50 (cancer cell lines; J82, bladder): > 50 µM | IC50 (cancer cell lines; JAR, placenta): > 50 µM | IC50 (cancer cell lines; MT3, breast): > 50 µM | IC50 (cancer cell lines; PC3, prostate): > 50 µM | IC50 (cancer cell lines; RD, muscle): > 50 µM | IC50 (cancer cell lines; T24, bladder): > 50 µM | IC50 (cancer cell lines; Homo sapiens, 22Rv1, 72 h, 22RV1, prostate): 3.69 µM | IC50 (cancer cell lines; Homo sapiens, 786-0, 72 h, 786O, kidney): > 50 µM | IC50 (cancer cell lines; Homo sapiens, A204, 72 h, A204, muscle): > 50 µM | IC50 (cancer cell lines; Homo sapiens, A549, 72 h, A549, lung): > 50 µM | IC50 (cancer cell lines; Homo sapiens, A673, 72 h, A673, bone): > 50 µM | IC50 (cancer cell lines; Homo sapiens, A2780, 72 h, A2780, ovary): > 50 µM | IC50 (cancer cell lines; Homo sapiens, A-375, 72 h, A375, skin): > 50 µM | IC50 (cancer cell lines; Homo sapiens, A-431, 72 h, A431, skin): 1.42 µM | IC50 (cancer cell lines; Homo sapiens, ACHN, kidney): 0.94 µM | IC50 (cancer cell lines; Homo sapiens, ASPC1, 72 h, ASPC1, pancreas): 0.49 µM | IC50 (cancer cell lines; Homo sapiens, BT-20, 72 h, BT20, breast): > 50 µM | IC50 (cancer cell lines; Homo sapiens, BXPC-3, 72 h, BXPC3, pancreas): 0.59 µM | IC50 (cancer cell lines; Homo sapiens, C-33-A, C33A, endometrial): 3.07 µM | IC50 (cancer cell lines; Homo sapiens, CAKI-1, 72 h, CAKI1, kidney): > 50 µM | IC50 (cancer cell lines; Homo sapiens, COLO 205, 72 h, COLO205, colon): 0.87 µM | IC50 (cancer cell lines; Homo sapiens, COLO-678, 72 h, COLO678, colon): > 50 µM | IC50 (cancer cell lines; Homo sapiens, Ca-Ski, CASKI, endometrial): > 50 µM | IC50 (cancer cell lines; Homo sapiens, Caco-2, 72 h, CACO2, colon): > 50 µM | IC50 (cancer cell lines; Homo sapiens, Calu-6, 72 h, CALU6, lung): > 50 µM | IC50 (cancer cell lines; Homo sapiens, DLD-1, 72 h, DLD1, colon): > 50 µM | IC50 (cancer cell lines; Homo sapiens, DU-145, 72 h, DU145, prostate): > 50 µM | IC50 (cancer cell lines; Homo sapiens, EFO-21, 72 h, EFO21, ovary): > 50 µM | IC50 (cancer cell lines; Homo sapiens, EJ-28, 72 h, EJ28, bladder): > 50 µM | IC50 (cancer cell lines; Homo sapiens, Granta-519, 72 h, GRANTA-519, hematological): 0.35 µM | IC50 (cancer cell lines; Homo sapiens, HCT-15, 72 h, HCT15, colon): > 50 µM | IC50 (cancer cell lines; Homo sapiens, HCT-116, 72 h, HCT116, colon): > 50 µM | IC50 (cancer cell lines; Homo sapiens, HEK293, 72 h, HEK293, kidney): > 50 µM | IC50 (cancer cell lines; Homo sapiens, HL-60, 72 h, HL-60, hematological): > 50 µM | IC50 (cancer cell lines; Homo sapiens, HT-29, 72 h, HT29, colon): > 50 µM | IC50 (cancer cell lines; Homo sapiens, HT-1080, 72 h, HT1080, connective tissue): > 50 µM | IC50 (cancer cell lines; Homo sapiens, HeLa, endometrial): > 50 µM | IC50 (cancer cell lines; Homo sapiens, HepG2, 72 h, HEPG2, liver): > 50 µM | IC50 (cancer cell lines; Homo sapiens, Hs-578T, HS578T, breast): > 50 µM | IC50 (cancer cell lines; Homo sapiens, IGROV-1, 72 h, IGROV1, ovary): > 50 µM | IC50 (cancer cell lines; Homo sapiens, IMR-90, 72 h, IMR90, lung): > 50 µM | IC50 (cancer cell lines; Homo sapiens, JEG-3, 72 h, JEG3, placenta): > 50 µM | IC50 (cancer cell lines; Homo sapiens, JIMT-1, 72 h, JIMT1, breast): > 50 µM | IC50 (cancer cell lines; Homo sapiens, K562, 72 h, K-562, hematological): > 50 µM | IC50 (cancer cell lines; Homo sapiens, Kasumi 1, 72 h, KASUMI-1, hematological): > 50 µM | IC50 (cancer cell lines; Homo sapiens, L-363, 72 h, L-363, hematological): > 50 µM | IC50 (cancer cell lines; Homo sapiens, LoVo, colon): 2.06 µM | IC50 (cancer cell lines; Homo sapiens, MCF7, 72 h, MCF7, breast): > 50 µM | IC50 (cancer cell lines; Homo sapiens, MDA-MB-231, 72 h, MDAMB231, breast): > 50 µM | IC50 (cancer cell lines; Homo sapiens, MDA-MB-435, 72 h, MDAMB435, skin): > 50 µM | IC50 (cancer cell lines; Homo sapiens, MDA-MB-436, 72 h, MDAMB436, breast): > 50 µM | IC50 (cancer cell lines; Homo sapiens, MDA-MB-468, 72 h, MDAMB468, breast): > 50 µM | IC50 (cancer cell lines; Homo sapiens, MG-63, 72 h, MG63, bone): > 50 µM | IC50 (cancer cell lines; Homo sapiens, MHH-ES-1, 72 h, MHHES1, bone): > 50 µM | IC50 (cancer cell lines; Homo sapiens, MIA PaCa-2, 72 h, MIAPACA2, pancreas): > 50 µM | IC50 (cancer cell lines; Homo sapiens, MINO, hematological): 0.06 µM | IC50 (cancer cell lines; Homo sapiens, MV4-11, 72 h, MV4-11, hematological): 1.72 µM | IC50 (cancer cell lines; Homo sapiens, NCI-H23, 72 h, NCI-H23, lung): > 50 µM | IC50 (cancer cell lines; Homo sapiens, NCI-H82, 72 h, NCIH82, lung): > 50 µM | IC50 (cancer cell lines; Homo sapiens, NCI-H292, 72 h, NCIH292, lung): > 50 µM | IC50 (cancer cell lines; Homo sapiens, NCI-H460, 72 h, NCIH460, ung): > 50 µM | IC50 (cancer cell lines; Homo sapiens, OVCAR-3, 72 h, OVCAR3, ovary): > 50 µM | IC50 (cancer cell lines; Homo sapiens, OVCAR-4, 72 h, OVCAR4, ovary): > 50 µM | IC50 (cancer cell lines; Homo sapiens, PANC-1, 72 h, PANC1, pancreas): > 50 µM | IC50 (cancer cell lines; Homo sapiens, PLC-PRF-5, 72 h, PLCPRF5, liver): > 50 µM | IC50 (cancer cell lines; Homo sapiens, Panc1005, 72 h, PANC1005, pancreas): > 50 µM | IC50 (cancer cell lines; Homo sapiens, Ramos, hematological): 1.18 µM | IC50 (cancer cell lines; Homo sapiens, SAOS-2, 72 h, SAOS2, bone): > 50 µM | IC50 (cancer cell lines; Homo sapiens, SF-268, 72 h, SF268, brain): > 50 µM | IC50 (cancer cell lines; Homo sapiens, SF-295, 72 h, SF295, brain): > 50 µM | IC50 (cancer cell lines; Homo sapiens, SK-BR-3, 72 h, SKBR3, breast): 0.37 µM | IC50 (cancer cell lines; Homo sapiens, SK-HEP1, 72 h, SKHEP1, liver): > 50 µM | IC50 (cancer cell lines; Homo sapiens, SK-LMS-1, 72 h, SKLMS1, uterus): > 50 µM | IC50 (cancer cell lines; Homo sapiens, SK-MEL-5, 72 h, SKMEL5, skin): > 50 µM | IC50 (cancer cell lines; Homo sapiens, SK-MEL-28, 72 h, SKMEL28, skin): > 50 µM | IC50 (cancer cell lines; Homo sapiens, SK-N-AS, SKNAS, brain): > 50 µM | IC50 (cancer cell lines; Homo sapiens, SK-N-SH, SKNSH, brain): > 50 µM | IC50 (cancer cell lines; Homo sapiens, SK-OV-3, 72 h, SKOV3, ovary): > 50 µM | IC50 (cancer cell lines; Homo sapiens, SNB-75, 72 h, SNB75, brain): > 50 µM | IC50 (cancer cell lines; Homo sapiens, SU-DHL10, 72 h, SU-DHL-10, hematological): 3.86 µM | IC50 (cancer cell lines; Homo sapiens, SU-DHL-6, 72 h, SU-DHL-6, hematological): 1.3 µM | IC50 (cancer cell lines; Homo sapiens, SW-620, 72 h, SW620, colon): > 50 µM | IC50 (cancer cell lines; Homo sapiens, TE-671, 72 h, TE671, muscle): > 50 µM | IC50 (cancer cell lines; Homo sapiens, THP-1, 72 h, THP-1, hematological): > 50 µM | IC50 (cancer cell lines; Homo sapiens, U2OS, bone): > 50 µM | IC50 (cancer cell lines; Homo sapiens, U-87 MG, U87MG, brain): > 50 µM | IC50 (cancer cell lines; Homo sapiens, UMUC3, 72 h, UMUC3, bladder): > 50 µM | IC50 (cancer cell lines; Homo sapiens, UO-31, 72 h, UO31, kidney): > 50 µM | IC50 (cancer cell lines; Homo sapiens, WSU-NHL, hematological): 0.87 µM | IC50 (cancer cell lines; NCI-H358M, NCIH358M, lung): 0.67 µM | IC50 (cancer cell lines; PBMC, hematological): > 50 µM | IC50 (cancer cell lines; RD-ES, RDES, bone): > 50 µM
SMILES: C#C[C@]1(CO)O[C@@H](n2cc(F)c(=O)[nH]c2=O)C[C@@H]1O [compound 15]
